Results published in US20250275965A1, “COMPOUNDS AS CASEIN KINASE INHIBITORS” (GRITSCIENCE BIOPHARMACEUTICALS CO.,LTD., priority 2020, published 2025).

Columns and labels:
CK1δ = CK1δ (Homo sapiens, UniProt P48730); test: CK1δ kinase assay (Kinase-Glo); format: biochemical; details: 10 μM ATP, 2 nM wild type kinase, 85 min at 25° C.
Description: The reaction mixture was incubated for 85 min at 25° C.; detection was carried out as described for the Kinase-Glo Assay (Promega). Luminescent output was measured on the Perkin Elmer Envision plate reader (PerkinElmer, Waltham, MA).

in vitro = details: human, Caco-2, pH 7.4
Description: 1) 50 μL and 25 mL of cell culture medium were added to each well of the Transwell insert and reservoir, respectively. And then the HTS transwell plates were incubated at 37° C., 5% CO2 for 1 hour before cell seeding.
2) Caco-2 cells were diluted to 6.86×10^5 cells/mL with culture medium and 50 μL of cell suspension were dispensed into the filter well of the 96-well HTS Transwell plate. Cells were cultivated for 14-18 days in a cell culture incubator at 37° C., 5% CO2, 95% relative humidity. Cell culture medium was replaced every other day, beginning no later than 24 hours after initial plating.
10 mM stock solutions of test compounds were prepared in DMSO. The stock solutions of positive controls were prepared in DMSO at the concentration of 10 mM.
1) Medium was removed from the reservoir and each Transwell insert and replaced with prewarmed fresh culture medium.
2) Transepithelial electrical resistance (TEER) across the monolayer was measured using Millicell Epithelial Volt-Ohm measuring system (Millipore, USA).
3) The Plate was returned to the incubator once the measurement was done.
The TEER value was calculated according to the following equation: TEER measurement (ohms)*Area of membrane (cm^2)=TEER value (ohm·cm^2) TEER value should be greater than 230 ohm·cm^2, which indicates the well-qualified Caco-2 monolayer.
1) The Caco-2 plate was removed from the incubator and washed twice with pre-warmed HBSS (10 mM HEPES, pH 7.4), and then incubated at 37° C. for 30 minutes.
2) The stock solutions of control compounds and test compounds were diluted in DMSO to get 1 mM solutions and then diluted with HBSS (10 mM HEPES, pH 7.4) get 5 μM working solutions. The final concentration of DMSO in the incubation system was 0.5%.
3) To determine the rate of drug transport in the apical to basolateral direction. 125 μL of 5 μM working solution of control compound and test compounds were added to the Transwell insert (apical compartment), and transfer 50 μL sample (DO sample) immediately from the apical compartment to a new 96-well plate. Fill the wells in the receiver plate (basolateral compartment) with 235 μL of HBSS (10 mM HEPES, pH 7.4).
4) To determine the rate of drug transport in the basolateral to apical direction. 285 μL of 5 μM working solution of control compound and test compounds were to the receiver plate wells (basolateral compartment), and transfer 50 μL sample (DO sample) immediately from the basolateral compartment to a new 96-well plate. Fill the wells in the Transwell insert (apical compartment) with 75 μL of HBSS (10 mM HEPES, pH 7.4). The assay was performed in duplicate.
5) The plates were incubated at 37° C. for 2 hours.
Samples were Vortexed for 5 minutes and then centrifuged at 3,220 g for 40 minutes. An aliquot of 100 μL of the supernatant was mixed with an appropriate volume of ultra-pure water before LC-MS/MS analysis.
7) To determine the Lucifer Yellow leakage after 2 hour transport period, stock solution of Lucifer yellow was prepared in water and diluted with HBSS (10 mM HEPES, pH 7.4) to reach the final concentration of 100 μM. 100 μL of the Lucifer yellow solution was added to each Transwell insert (apical compartment), followed by filling the wells in the receiver plate (basolateral compartment) with 300 μL of HBSS (10 mM HEPES, pH 7.4). The plates were Incubated at 37° C. for 30 mins. 80 μL samples were removed directly from the apical and basolateral wells (using the basolateral access holes) and transferred to wells of new 96 wells plates. The Lucifer Yellow fluorescence (to monitor monolayer integrity) signal was measured in a fluorescence plate reader at 485 nm excitation and 530 nm emission.
The apparent permeability coefficient (Papp), in units of centimeter per second, can be calculated for Caco-2 drug transport assays using the following equation: […]

[1] = Intrinsic clearance in liver microsomes (mouse); format: in vitro ADME; details: Mouse liver microsomes 0.5 mg/mL, 2 μM compound, 37° C.; for microsomal CLint at 2 μM: read-out: in vitro CLint (μL/min/mg protein); for half-life at 2 μM: read-out: in vitro t1/2
Description: (§1) 1. The master solution was prepared according to Table 4.
(§2) 2. Three separated experiments were performed as follows. a) With NADPH: 10 μL of 20 mg/mL liver microsomes and 40 μL of 10 mM NADPH were added to the incubations. The final concentrations of microsomes and NADPH were 0.5 mg/mL and 1 mM, respectively. b) Without NADPH: 10 μL of 20 mg/mL liver microsomes and 40 μL of ultra-pure H2O were added to the incubations. The final concentration of microsomes was 0.5 mg/mL. c) Heat-inactivated microsomes without NADPH: 10 μL of 20 mg/mL heat-inactivated liver microsomes and 40 μL of ultra-pure H2O were added to the incubations. The final concentration of microsomes was 0.5 mg/mL.
(§3) 3. The reaction was started with the addition of 4 μL of 200 μM test compound solution or control compound solution at the final concentration of 2 μM and carried out at 37° C.
(§4) 4. Aliquots of 50 μL were taken from the reaction solution at 0, 15, 30, 45 and 60 min. The reaction was stopped by the addition of 4 volumes of cold acetonitrile with IS (100 nM alprazolam, 200 nM labetalol, 200 nM caffeine and 2 μM ketoprofen). Samples were centrifuged at 3, 220 g for 40 minutes.
(§5) All calculations were carried out using Microsoft Excel.
(§6) Peak areas were determined from extracted ion chromatograms. The slope value, k, was determined by linear regression of the natural logarithm of the remaining percentage of the parent drug vs. incubation time curve.
(§7) The in vitro half-life (in vitro t1/2) was determined from the slope value:
(§8) Conversion of the in vitro t1/2 (min) into the in vitro intrinsic clearance (in vitro CLint, in μL/min/mg protein) was done using the following equation (mean of duplicate determinations): […]

[2] = Intrinsic clearance in liver microsomes (human); format: in vitro ADME; details: Human liver microsomes 0.5 mg/mL, 2 μM compound, 37° C.; for microsomal CLint at 2 μM: read-out: in vitro CLint (μL/min/mg protein); for half-life at 2 μM: read-out: in vitro t1/2
Description: as §1, §2, §3, §4, §5, §6, §7, §8

Chain of CK1δ (P48730 whole entry): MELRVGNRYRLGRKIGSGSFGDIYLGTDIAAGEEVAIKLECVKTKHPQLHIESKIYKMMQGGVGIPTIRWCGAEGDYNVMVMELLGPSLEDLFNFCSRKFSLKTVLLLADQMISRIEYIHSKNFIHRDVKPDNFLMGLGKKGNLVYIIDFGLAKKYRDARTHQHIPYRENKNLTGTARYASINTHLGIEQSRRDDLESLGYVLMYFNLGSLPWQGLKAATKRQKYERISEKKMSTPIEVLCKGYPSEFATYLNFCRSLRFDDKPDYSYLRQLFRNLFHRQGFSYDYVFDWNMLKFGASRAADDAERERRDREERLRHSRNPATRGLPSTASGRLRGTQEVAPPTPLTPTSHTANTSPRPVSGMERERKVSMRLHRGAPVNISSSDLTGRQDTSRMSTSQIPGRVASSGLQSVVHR

SMILES	EC50 (CK1δ) [nM]	Papp A→B at 2 h, 5 μM (in vitro) [×10⁻⁶ cm/s]	Papp B→A at 2 h, 5 μM (in vitro) [×10⁻⁶ cm/s]	efflux ratio at 2 h, 5 μM (in vitro)	microsomal CLint at 2 μM [1] [µL/min/mg]	half-life at 2 μM [1] [h]	microsomal CLint at 2 μM [2] [µL/min/mg]	half-life at 2 μM [2] [h]
Cn1cc(-c2ccnc3ccnn23)c(-c2ccc(F)cc2)n1 [Compound I-1, 7-(3-(4-fluorophenyl)-1-methyl-1H-pyrazol-4-yl)pyrazolo[1,5-a]pyrimidine]	15000	–	–	–	–	–	–	–
Cc1cn2nccc(-c3cn(C)nc3-c3ccc(F)cc3)c2n1 [Compound I-4, 8-(3-(4-fluorophenyl)-1-methyl-1H-pyrazol-4-yl)-2-methyli-midazo[1,2-b]pyridazine]	2700	–	–	–	–	–	–	–
Cn1cc(-c2ccnn3c(N)cnc23)c(-c2ccc(F)cc2)n1 [Compound I-8, 8-(3-(4-fluorophenyl)-1-methyl-1H-pyrazol-4-yl)imidazo[1,2-b]pyridazin-3-amine]	3300	–	–	–	–	–	–	–
Cn1cc(-c2ccnn3cccc23)c(-c2ccc(F)cc2)n1 [Compound I-9, 4-(3-(4-fluorophenyl)-1-methyl-1H-pyrazol-4-yl)pyrrolo[1,2-b]pyridazine]	2500	–	–	–	–	–	–	–
Cn1cc(-c2ccnn3cnnc23)c(-c2ccc(F)cc2)n1 [Compound I-10, 8-(3-(4-fluorophenyl)-1-methyl-1H-pyrazol-4-yl)-[1,2,4]triazo-lo[4,3-b]pyridazine]	7900	–	–	–	–	–	–	–
COC(=O)c1cn2nccc(-c3cn(C)nc3-c3ccc(F)cc3)c2n1 [Compound I-12, methyl 8-(3-(4-fluorophenyl)-1-methyl-1H-pyrazol-4-yl)imidazo[1,2-b]pyridazine-2-carboxylate]	8600	–	–	–	–	–	–	–
Cn1cc(-c2ccnn3cc(N)nc23)c(-c2ccc(F)cc2)n1 [Compound I-13, 8-(3-(4-fluorophenyl)-1-methyl-1H-pyrazol-4-yl)imidazo[1,2-b]pyridazin-2-amine]	2800	–	–	–	–	–	–	–
Cn1cc(-c2ccnn3cc(CN)nc23)c(-c2ccc(F)cc2)n1 [Compound I-14]	200	13	31.5	2.43	5.9	3.92	0.93	24.9
Cn1cc(-c2ccnn3cc(C(N)=O)nc23)c(-c2ccc(F)cc2)n1 [Compound I-15, 8-(3-(4-fluorophenyl)-1-methyl-1H-pyrazol-4-yl)imidazo[1,2-b]pyridazine-2-carboxamide]	500	24.8	25.2	1.02	38.8	0.595	–	–
CNC(=O)c1cn2nccc(-c3cn(C)nc3-c3ccc(F)cc3)c2n1 [Compound I-16, 8-(3-(4-fluorophenyl)-1-methyl-1H-pyrazol-4-yl)-N-methyli-midazo[1,2-b]pyridazine-2-carboxamide]	700	22.4	20.8	0.93	66.8	0.346	12.5	1.85
Cn1cc(-c2ccnn3cc(C(C)(C)O)nc23)c(-c2ccc(F)cc2)n1 [Compound I-17, 2-(8-(3-(4-fluorophenyl)-1-methyl-1H-pyrazol-4-yl)imidazo[1,2-b]pyridazin-2-yl)propan-2-ol]	400	25.3	19.4	0.77	19.1	1.21	3.25	7.11
CNc1cn2nccc(-c3cn(C)nc3-c3ccc(F)cc3)c2n1 [Compound I-19, 8-(3-(4-fluorophenyl)-1-methyl-1H-pyrazol-4-yl)-N-methyli-midazo[1,2-b]pyridazin-2-amine]	25000	–	–	–	–	–	–	–
CC(=O)Nc1cn2nccc(-c3cn(C)nc3-c3ccc(F)cc3)c2n1 [Compound I-20, N-(8-(3-(4-fluorophenyl)-1-methyl-1H-pyrazol-4-yl)imidazo [1,2-b]pyridazin-2-yl)acetamide]	2500	–	–	–	–	–	–	–
CC(=O)NCc1cn2nccc(-c3cn(C)nc3-c3ccc(F)cc3)c2n1 [Compound I-21, N-((8-(3-(4-fluorophenyl)-1-methyl-1H-pyrazol-4-yl)imidazo [1,2-b]pyridazin-2-yl)methyl)acetamide]	5300	–	–	–	–	–	–	–
CNCc1cn2nccc(-c3cn(C)nc3-c3ccc(F)cc3)c2n1 [Compound I-22, 1-(8-(3-(4-fluorophenyl)-1-methyl-1H-pyrazol-4-yl)imidazo[1,2-b]pyridazin-2-yl)-N-methylmethanamine]	300	12.7	32.1	2.52	18.9	1.22	2.64	8.76
CC(=O)N1CCn2nc(-c3ccc(F)cc3)c(-c3ccnc4[nH]ccc34)c2C1 [Compound I-24, 1-(2-(4-fluorophenyl)-3-(1H-pyrrolo[2,3-b]pyridin-4-yl)-6,7-dihydropyrazolo[1,5-a]pyrazin-5(4H)-yl)ethan-1-one]	800	5.28	18.4	3.49	24.7	0.935	7.47	3.09
